Experimental findings from patent publication US20230355599A1, “BIOMARKERS FOR CBL, AND COMPOSITIONS AND METHODS FOR THEIR USE” (NURIX THERAPEUTICS, INC., priority 2022, published 2023) are described below.

For one test, the system named is phosphorylated ZAP70. Description: Phosphorylated ZAP70 in human CD8+ T cells from whole blood in vitro (flow cytometry). The test is classed as cell-based. The conditions noted are these: T-cell, whole blood from six human donors, 2 hrs 37° C., anti-CD3/anti-CD28 + crosslinker 60 minutes, read-out: Average mean EC50±standard deviation, phosphorylated ZAP70. As for the experimental part:
To assess these candidate clinical proximal biomarkers of Cbl-b inhibition on T cells, pharmacodynamic analysis was performed. Whole blood was obtained from human donors and incubated with increasing concentrations of Compound 23. The response to Cbl-b inhibition on phosphorylated HS1, PLCγ2, and ZAP70 was measured in CD8^+ T cells using flow cytometry. This technique is highly quantitative and can measure multiple phosphorylation markers in different cell populations within the same sample.
For pharmacodynamic analysis, whole blood was obtained from six human donors (BioIVT) and used for flow cytometry assays to evaluate phosphorylated biomarkers HS1, PLCγ2, and ZAP70 in CD8^+ T cells.
Whole blood was collected in a collection tube coated with sodium heparin. […]
Stained cells were run on an Attune NxT Acoustic Focusing Flow Cytometer (Thermo Fisher, cat. No. A29004), and data was analyzed using FlowJo (v10.6.1) and GraphPad Prism (v8.00) software. Single lymphocytes were gated for CD8^+ cells (CD45^+/CD8^+) cells, and population frequencies were calculated for each population. The data is quantified by the percent positive. […] As protein becomes phosphorylated the fluorescence increases resulting in a larger fraction of the cells entering that gate. Each population was evaluated for % positive pY759-PLCγ2, pY397-HS1 levels, pY319/Syk (Y352)-ZAP70 levels.
In general terms: Flow cytometry measures light scatter and fluorescence of single cells or particles in a stream.

For a further test, the system named is phosphorylated HS1. Kind of test: HS1 phosphorylation in stimulated CD8+ T cells of mice after a single oral dose (flow cytometry). The test is classed as in vivo. As for the experimental part:
To assess the in vivo effects of Compound 23 on candidate clinical proximal biomarkers of CBL-B inhibition and compare them to anti-tumor efficacy, two experiments were performed in mice. In the first experiment, whole blood was obtained from groups of mice (n=4 per group) administered a single oral dose of either vehicle (0.5% MC/0.2% polysorbate 80 in deionized water) or increasing doses of Compound 23 at 0.3, 1, 3, 10, 30, or 90 mg/kg. The response to Compound 23 on HS1 activation was measured in anti-CD3 and anti-CD28 stimulated CD8^+ T cells using flow cytometry. Compound 23 induced a dose-dependent increase in the proportion of phosphorylated HS1^+CD8^+ in the presence of anti-CD3 and anti-CD28 co-stimulation. The greatest induction of phosphorylated HS1 was observed upon ex vivo stimulation following administration of Compound 23 doses of ≥10 mg/kg. […] Statistical significance was calculated using 2-way ANOVA with Dunnett's multiple comparisons test.

The structures appear in SMILES notation.

By EC50 is commonly meant the concentration needed to bring the measured effect to its halfway point. With `C[C@H]1CCCN(Cc2cc3c(c(C(F)(F)F)c2)CN(c2cccc([C@]4(c5nncn5C)C[C@@H](C)C4)c2)C3=O)C1` [Compound 23], the EC50 in the test on phosphorylated ZAP70 was 120 ± 8.97 nM. Also, the “proximal biomarker pHS1 that correlates with the efficacious range” value in the test with phosphorylated HS1 (pHS1+CD8+ T cells, mouse syngeneic tumor models, therapeutic range) is “approximately 50%”. For the same compound, in the test with phosphorylated HS1 (single oral dose 0.3-90 mg/kg, anti-CD3 and anti-CD28 stimulated CD8+ T cells), the “minimum biological effect level observed in mice (EC50), phosphorylated HS1+ CD8+” value came to 12 mg/kg. The “doses giving the greatest induction of phosphorylated HS1” value in the test on phosphorylated HS1 (single oral dose, ex vivo stimulation) is at least 10 mg/kg.
